Laboratory results taken from the NIST ThermoML archive (doi:10.1016/j.fluid.2017.12.001).
± gives the expanded uncertainty stated by the source.

Legend:
[1] = 101.33 kPa, Liquid; for viscosity: Concentric cylinders viscometry; for mass density: Vibrating tube method; for speed of sound: Single path-length method
[2] = xn = mol fraction of the nth substance listed; details: 100.9 kPa, Liquid, Concentric cylinders viscometry, x2 = 0

O [water]
[1]
Details	mass density [kg/m3]	speed of sound [m/s]	viscosity [mPa·s]
283 K	999.72 ± 0.05	–	1.31 ± 0.01
286 K	999.46 ± 0.05	1457 ± 1	1.23 ± 0.01
288 K	–	–	1.15 ± 0.01
291 K	998.69 ± 0.05	1475 ± 1	1.08 ± 0.01
293 K	–	–	1.02 ± 0.01
296 K	997.66 ± 0.05	1490 ± 1	0.96 ± 0.01
298 K	–	–	0.9 ± 0.01
301 K	996.37 ± 0.05	1503 ± 1	0.85 ± 0.01
303 K	–	–	0.8 ± 0.01
306 K	994.87 ± 0.05	1515 ± 1	0.76 ± 0.01
308 K	–	–	0.72 ± 0.01
311 K	993.15 ± 0.06	1525 ± 1	0.69 ± 0.01
313 K	–	1529 ± 1	0.65 ± 0.01
316 K	991.23 ± 0.06	1533 ± 1	0.62 ± 0.01
318 K	–	1537 ± 1	0.59 ± 0.01
321 K	989.15 ± 0.06	1540 ± 1	0.57 ± 0.01
323 K	988.03 ± 0.06	–	0.54 ± 0.01

O [water] + CCCC(=O)[O-].CC[NH2+]CC
[2]
Details	viscosity [mPa·s]
283.15 K	1.31 ± 0.02
285.65 K	1.23 ± 0.02
288.15 K	1.15 ± 0.02
290.65 K	1.08 ± 0.02
293.15 K	1.02 ± 0.02
295.65 K	0.96 ± 0.02
298.15 K	0.9 ± 0.02
300.65 K	0.85 ± 0.02
303.15 K	0.8 ± 0.02
305.65 K	0.76 ± 0.02
308.15 K	0.72 ± 0.02
310.65 K	0.69 ± 0.02
313.15 K	0.65 ± 0.02
315.65 K	0.62 ± 0.02
318.15 K	0.59 ± 0.02
320.65 K	0.57 ± 0.02
323.15 K	0.54 ± 0.02
325.65 K	0.51 ± 0.02
328.15 K	0.49 ± 0.02
330.65 K	0.47 ± 0.02
333.15 K	0.45 ± 0.02
335.65 K	0.43 ± 0.02
338.15 K	0.41 ± 0.02
340.65 K	0.39 ± 0.02
343.15 K	0.37 ± 0.02
